According to PubChem BioAssay (NCI):
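96-well plates; 48 h exposure; 5 concentrations. Endpoints by linear interpolation between flanking doses. Not reached: highest tested concentration assigned. GI50: concentration for 50% inhibition of growth. Definition used: TGI = concentration required for complete inhibition of growth.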 Where a SMILES comes first, the peptide text is derived from it. [ ]: non-standard residue; d: D form. The star is where a group is joined. NMeF = CN[CH](Cc1ccccc1)C(=O)O; NMeV = CN[CH](C(=O)O)C(C)C; Boc = CC(C)(C)OC(=O)*; OBn = c1ccc(CO*)cc1

What was measured:
Assay in all cases: growth of human tumour cells (NCI), 48 h
CCRF-CEM leukemia = tested on: CCRF-CEM leukemia
SW-620 colon = tested on: SW-620 colon
HT29 colon = tested on: HT29 colon
SK-MEL-5 melanoma = tested on: SK-MEL-5 melanoma
RPMI-8226 leukemia = tested on: RPMI-8226 leukemia
K-562 leukemia = tested on: K-562 leukemia
OVCAR-4 ovarian = tested on: OVCAR-4 ovarian
SF-268 CNS = tested on: SF-268 CNS
UACC-257 melanoma = tested on: UACC-257 melanoma

Row | SMILES | TGI (CCRF-CEM leukemia) | TGI (SW-620 colon) | TGI (HT29 colon) | TGI (SK-MEL-5 melanoma) | TGI (RPMI-8226 leukemia) | TGI (K-562 leukemia) | TGI (OVCAR-4 ovarian) | TGI (SF-268 CNS) | GI50 (CCRF-CEM leukemia) | GI50 (SW-620 colon) | GI50 (OVCAR-4 ovarian) | GI50 (UACC-257 melanoma) | TGI (UACC-257 melanoma) | GI50 (SF-268 CNS) | GI50 (HT29 colon) | GI50 (SK-MEL-5 melanoma) | GI50 (RPMI-8226 leukemia) | GI50 (K-562 leukemia)
1 | COc1cc2c(c3oc(-c4ccc5c(c4)OCO5)c(O)c(=O)c13)CCC(C)(C)O2 | > 100 µM | > 100 µM | > 100 µM | > 100 µM | > 100 µM | > 100 µM |  |  |  |  |  |  |  |  |  |  |  | 
2 | CC1(C)CCc2cc3c(cc2O1)OC(C)(C)C1c2c(ccc4c2CCC(C)(C)O4)OC31 (configuration not stated) | > 100 µM | > 100 µM | > 100 µM | > 100 µM | > 100 µM | > 100 µM | > 100 µM | > 100 µM |  |  |  |  |  |  |  |  |  | 
3 | O=C1C2C(C(=O)[N]1[Hg][c]1ccccc1)C1(Cl)C(Cl)=C(Cl)C2(Cl)C1(Cl)Cl (configuration not stated) | 10.4 µM | 1.8 µM | 4.25 µM | 2.17 µM | 5.94 µM | 11.4 µM | 4.15 µM | 3.71 µM | 365 nM | 464 nM | 1090 nM | 1220 nM | 2.52 µM | 1640 nM | 1810 nM | 1000 nM | 1640 nM | 1360 nM
4 | NNC(=O)CC(=O)Nc1ccccc1F | > 100 µM | > 100 µM | > 100 µM | > 100 µM | > 100 µM | > 100 µM | > 100 µM | > 100 µM |  |  |  |  | > 100 µM |  |  |  |  | 
5 | CCOC(=O)c1c(-c2[nH]c(C(=O)OCc3ccccc3)c(C)c2C(=O)OCC)[nH]c(C(=O)OCc2ccccc2)c1C |  | > 100 µM | > 100 µM | > 100 µM | > 100 µM |  |  | > 100 µM |  |  |  |  |  |  |  |  |  | 
6 | CC(C)C(/C=C/c1ccccc1)=N\NC(=O)N/N=C(/C=C/c1ccccc1)C(C)C | > 100 µM | > 100 µM | > 100 µM | 53.7 µM | > 100 µM | > 100 µM | > 100 µM | > 100 µM |  |  |  |  | > 100 µM |  |  |  |  | 
7 | Cc1cn(C2C=CC(=O)C(C)O2)c(=O)[nH]c1=O (configuration not stated) | 32.5 µM | 28.8 µM | 33.4 µM | 28.1 µM | 47.9 µM | 36.9 µM |  | 33.5 µM |  |  |  |  | 27.8 µM |  |  |  |  | 
8 | COc1cc2ccc(CC#N)cc2cc1OC | > 100 µM | > 100 µM | > 100 µM | > 100 µM |  | > 100 µM | > 100 µM | > 100 µM |  |  |  |  | > 100 µM |  |  |  |  | 
9 | COc1ccc2oc(-c3ccncc3)cc(=O)c2c1 | > 100 µM |  | > 100 µM |  | > 100 µM | > 100 µM | > 100 µM | > 100 µM |  |  |  |  | > 100 µM |  |  |  |  | 
10 | CC(C)O/C=C1\C(=O)C2(SCCS2)[C@H]2CCCC[C@@H]12 | 73.2 µM | > 100 µM |  | > 100 µM | 81 µM | > 100 µM | > 100 µM | > 100 µM |  |  |  |  | > 100 µM |  |  |  |  | 
11 | O=C1C2Cc3ccccc3CN2C(=O)N1CN1CCN(CN2C(=O)C3Cc4ccccc4CN3C2=O)CC1 (configuration not stated) | > 100 µM | > 100 µM | > 100 µM | > 100 µM | > 100 µM | > 100 µM |  | > 100 µM |  |  |  |  | > 100 µM |  |  |  |  | 
12 | OCCc1cnco1 | > 100 µM | > 100 µM | > 100 µM | > 100 µM | > 100 µM | > 100 µM | > 100 µM | > 100 µM |  |  |  |  |  |  |  |  |  | 
13 | COc1ccc(CNc2nc3ccccc3nc2-c2cccs2)cc1OC | > 100 µM | > 100 µM | > 100 µM |  | > 100 µM | > 100 µM |  | > 100 µM |  |  |  |  | > 100 µM |  |  |  |  | 
14 | CC(C)C(NC(=O)OC(C)(C)C)C(=O)N(C)C(Cc1ccccc1)C(=O)N(C)C(C(=O)N(C)C(C(=O)OCc1ccccc1)C(C)C)C(C)C (configuration not stated) (Boc-V[NMeF][NMeV][NMeV]-OBn; configuration not given here) | > 100 µM | > 100 µM | > 100 µM | > 100 µM | > 100 µM | > 100 µM |  | > 100 µM |  |  |  |  | > 100 µM |  |  |  |  | 
15 | O=C1c2c(c3c4ccccc4n4c3c3c2c2ccccc2n3C/C=C\C4)C(=O)N1Cc1ccccc1 | > 100 µM | > 100 µM | > 100 µM | > 100 µM | > 100 µM | > 100 µM |  |  |  |  |  |  | > 100 µM |  |  |  |  | 
16 | Cn1c(=O)c(C(c2ccccc2)c2c(O)c3ccccc3n(C)c2=O)c(O)c2ccccc21 |  | > 100 µM | > 100 µM | > 100 µM | > 100 µM | > 100 µM | > 100 µM | > 100 µM |  |  |  |  | > 100 µM |  |  |  |  | 
17 | CSc1nc2c(nc(N)n2C2OCC(O)C(O)C2O)c(=O)[nH]1 (configuration not stated) | > 100 µM | > 100 µM | > 100 µM | > 100 µM |  | > 100 µM | > 100 µM | > 100 µM |  |  |  |  | > 100 µM |  |  |  |  | 
18 | O=C(N/C(=C\c1ccc([N+](=O)[O-])cc1)c1nc2[nH]c(=S)[nH]c(=O)c2[nH]1)c1ccccc1 | > 100 µM | > 100 µM | > 100 µM | > 100 µM |  | > 100 µM | > 100 µM | > 100 µM |  |  |  |  |  |  |  |  |  | 
